System: Wnt pathway (TCF-dependent transcription in HEK293 luciferase reporter cell line with ER-DSH construct)
Assay: Cellular assay for Wnt pathway activity (luciferase reporter)
Type: cell-based
Details: Homo sapiens; Wnt pathway inhibition, HEK293 luciferase reporter cells (ER-DSH, TCF promoter), 24 hours incubation, estrogen-induced
Procedure, shortened: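 Luminescent luciferase read-out after 24 h compound exposure at 1 nM to 30 μM, with TCF-driven transcription switched on by estrogen addition. IC50 values come from curve fits of data normalized against the vehicle-only control.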

Q: For `CC(=O)N(C)CCNc1cncc(Oc2ccc(-c3ccncc3C#N)cc2F)n1` [Compound 257, N-(2-{6-[4-(3-Cyano-pyridin-4-yl)-2-fluoro-phenoxy]-pyrazin-2-ylamino}-ethyl)-N-methyl-acetamide], which IC50 is on record?
A: 0.2 to 1 µM

Q: `CC(=O)N(C)CCN(C)c1cncc(Oc2ccc(-c3ccc(N)nc3)c(F)c2F)n1` [Compound 280, N-[2-({6-[4-(6-Amino-pyridin-3-yl)-2,3-difluoro-phenoxy]-pyrazin-2-yl}-methyl-amino)-ethyl]-N-methyl-acetamide] was tested. Which IC50 did it give?
A: < 0.2 µM

Q: How did the IC50 turn out when `CC(=O)N(C)CCNc1cncc(Cc2ccccc2)n1` [Compound 319, N-[2-(6-Benzyl-pyrazin-2-ylamino)-ethyl]-N-methyl-acetamide] was run?
A: 0.2 to 1 µM

Q: How did the IC50 turn out when `CC(=O)N(C)CCN(C)c1cncc(OC2CCCCC2)n1` [Compound 48, N-{2-[(6-Cyclo-hexyloxy-pyrazin-2-yl)-methyl-amino]-ethyl}-N-methyl-acetamide] was run?
A: 1 to 10 µM

Q: `COc1cccc(Oc2cncc(N(C)CCN(C)C(C)=O)n2)c1` [Compound 41, N-(2-{[6-(3-Methoxy-phenoxy)-pyrazin-2-yl]-methyl-amino}-ethyl)-N-methyl-acetamide] was tested. Which IC50 did it give?
A: 1 to 10 µM

Q: Which IC50 does the source give for `CC(=O)N(C)CCNc1cncc(Oc2ccc(-c3ccc(CO)nc3)cc2)n1` [Compound 254, N-(2-{6-[4-(6-Hydroxy-methyl-pyridin-3-yl)-phenoxy]-pyrazin-2-ylamino}-ethyl)-N-methyl-acetamide] here?
A: 0.2 to 1 µM

Q: How did the IC50 turn out when `CC(=O)N(C)CCN(C)c1cncc(Oc2ccc(-c3c(F)c(F)nc(F)c3F)cc2)n1` [Compound 236, N-Methyl-N-[2-(methyl-{6-[4-(2,3,5,6-tetrafluoro-pyridin-4-yl)-phenoxy]-pyrazin-2-yl}-amino)-ethyl]-acetamide] was run?
A: < 0.2 µM

Q: How did the IC50 turn out when `CC(=O)N(C)CCN(C)c1cncc(Oc2ccc3ncccc3c2)n1` [Compound 47, N-Methyl-N-(2-{methyl-[6-(quinolin-6-yloxy)-pyrazin-2-yl]-amino}-ethyl)-acetamide] was run?
A: 1 to 10 µM

Q: `COc1ccc(Oc2cncc(N(C)CCN(C)S(=O)(=O)c3cc(F)ccc3F)n2)cc1` [Compound 61, 2,5-Difluoro-N-(2-{[6-(4-methoxy-phenoxy)-pyrazin-2-yl]-methyl-amino}-ethyl)-N-methyl-benzene-sulfonamide] was tested. Which IC50 did it give?
A: 1 to 10 µM

Q: `CC(=O)N1CCCC1CNc1cncc(Oc2ccc(F)cc2)n1` (stereo not shown) [Compound 62, 1-(2-{[6-(4-Fluoro-phenoxy)-pyrazin-2-ylamino]-methyl}-pyrrolidin-1-yl)-ethanone] was tested. Which IC50 did it give?
A: 1 to 10 µM

Q: How did the IC50 turn out when `CC(=O)N(C)CCN(C)c1cncc(Oc2ccc(-c3ccc(Cl)cc3)c(F)c2F)n1` [Compound 249, N-(2-{[6-(4′-Chloro-2,3-difluoro-biphenyl-4-yloxy)-pyrazin-2-yl]-methyl-amino}-ethyl)-N-methyl-acetamide] was run?
A: 0.2 to 1 µM

Q: For `CC(=O)N(C)CCN(C)c1cncc(Oc2ccc(-c3ncccc3N3CCOCC3)cc2)n1` [Compound 164, N-Methyl-N-[2-(methyl-{6-[4-(3-morpholin-4-yl-pyridin-2-yl)-phenoxy]-pyrazin-2-yl}-amino)-ethyl]-acetamide], which IC50 is on record?
A: 1 to 10 µM

Q: For `CCC(=O)N(C)CCN(C)c1cncc(Oc2ccc(OC)cc2)n1` [Compound 35, N-(2-{[6-(4-Methoxy-phenoxy)-pyrazin-2-yl]-methyl-amino}-ethyl)-N-methyl-propionamide], which IC50 is on record?
A: 1 to 10 µM

Q: For `CC(=O)N(C)CCN(C)c1cncc(Oc2ccc3c(c2)CCC3)n1` [Compound 92, N-(2-{[6-(Indan-5-yloxy)-pyrazin-2-yl]-methyl-amino}-ethyl)-N-methyl-acetamide], which IC50 is on record?
A: < 0.2 µM

Q: For `CC(=O)N(C)CCNc1cncc(Oc2ccc(-c3cccc(N4CCN(C)CC4)n3)cc2)n1` [Compound 234, N-Methyl-N-[2-(6-{4-[6-(4-methyl-piperazin-1-yl)-pyridin-2-yl]-phenoxy}-pyrazin-2-ylamino)-ethyl]-acetamide], which IC50 is on record?
A: < 0.2 µM

Q: With `CC(=O)N(C)CCNc1cncc(Oc2ccc(-c3ccc(N4CCOCC4)nc3)cc2)n1` [Compound 233, N-Methyl-N-(2-{6-[4-(6-morpholin-4-yl-pyridin-3-yl)-phenoxy]-pyrazin-2-ylamino}-ethyl)-acetamide] as the compound, how does the IC50 read?
A: 1 to 10 µM

— patent US9493444B2 (Merck Patent GmbH, priority 2012, dated 2016)
